Measurements reported in the NIST ThermoML archive (doi:10.1016/j.jct.2014.07.017).
± gives the expanded uncertainty stated by the source.

Assay: mn = molality of the nth substance listed, in mol/kg
Details: 298.15 K, 100 kPa, Liquid, Direct current cell with electrodes

CCNCC(O)c1cccc(O)c1.Cl (stereo unspecified) [1-(3-hydroxyphenyl)-2-ethylaminoethanol hydrochloride] + O
Details | electrical conductivity [S/m]
m1 = 0.01028 | 0.03 ± 0.001
m1 = 0.01115 | 0.033 ± 0.001
m1 = 0.01209 | 0.037 ± 0.001
m1 = 0.01313 | 0.041 ± 0.001
m1 = 0.01425 | 0.045 ± 0.001
m1 = 0.01546 | 0.051 ± 0.001
m1 = 0.01677 | 0.056 ± 0.001
m1 = 0.0182 | 0.061 ± 0.001
m1 = 0.01896 | 0.065 ± 0.001
m1 = 0.01974 | 0.068 ± 0.001
m1 = 0.02057 | 0.072 ± 0.001
m1 = 0.02143 | 0.075 ± 0.001
m1 = 0.02232 | 0.078 ± 0.001
m1 = 0.02325 | 0.082 ± 0.001
m1 = 0.02422 | 0.087 ± 0.001
m1 = 0.02523 | 0.09 ± 0.001
m1 = 0.02628 | 0.095 ± 0.001
m1 = 0.02737 | 0.101 ± 0.001
m1 = 0.02851 | 0.105 ± 0.001
m1 = 0.0297 | 0.109 ± 0.001
m1 = 0.03094 | 0.115 ± 0.001
m1 = 0.03222 | 0.12 ± 0.001
m1 = 0.03357 | 0.126 ± 0.001
m1 = 0.03497 | 0.132 ± 0.001
m1 = 0.03643 | 0.138 ± 0.001
m1 = 0.03795 | 0.145 ± 0.002
m1 = 0.03953 | 0.15 ± 0.002
m1 = 0.04117 | 0.155 ± 0.002
m1 = 0.04289 | 0.159 ± 0.002
m1 = 0.04468 | 0.165 ± 0.002
m1 = 0.04654 | 0.171 ± 0.002
m1 = 0.04848 | 0.177 ± 0.002
m1 = 0.0505 | 0.185 ± 0.002
m1 = 0.0526 | 0.191 ± 0.002
m1 = 0.05479 | 0.195 ± 0.002
m1 = 0.05708 | 0.203 ± 0.002
m1 = 0.05945 | 0.208 ± 0.002
m1 = 0.06193 | 0.216 ± 0.002
m1 = 0.06451 | 0.224 ± 0.002
m1 = 0.0672 | 0.232 ± 0.002
m1 = 0.07 | 0.241 ± 0.002
